According to patent US9532994B2, “Agents and methods for enhancing bone formation by oxysterols in combination with bone morphogenic proteins” (THE REGENTS OF THE UNIVERSITY OF CALIFORNIA, priority 2003, dated 2017):

Columns and labels:
[1] = tested on: M2-10B4 mouse marrow stromal cell line; test: Alkaline phosphatase (ALP) activity assay in M2 cells; format: cell-based; conditions: for induction of alkaline phosphatase activity: 10 μM oxysterols, osteogenic medium, 3 days (FIG. 3A); for dose- and time-dependence of induction of alkaline phosphatase activity: concentrations between 0.5-10 μM; for alkaline phosphatase activity: ligands used at 10 μM, ±SD, control vehicle C: 18±2, p<0.01 for C vs. all ligands
Procedure: Cells: M2-10B4 mouse marrow stromal cell line obtained from American Type Culture Collection (ATCC, Rockville, Md., U.S.A.) was derived from bone marrow stromal cells of a (C57BL/6J×C3H/HeJ) F1 mouse, and support human and murine myelopoiesis in long-term cultures (as per ATCC) and have the ability to differentiate into osteoblastic and adipocytic cells. Unless specified, these cells were cultured in RPMI 1640 containing 10% heat-inactivated FBS, and supplemented with 1 mM sodium pyruvate, 100 U/ml penicillin, and 100 […] (all from Irvine Scientific).
Alkaline phosphatase activity assay: Colorimetric alkaline phosphatase (ALP) activity assay on whole cell extracts was performed as previously described. […]
Test 2: M2 cells were grown in RPMI medium containing 10% fetal bovine serum (FBS). At confluence, the cells were treated in RPMI containing 5% FBS plus ascorbate at 50 μg/ml and β-glycerophosphate at 3 mM to induce osteoblastic differentiation. Adipogenic differentiation was induced by treating the cells in growth medium plus 10 ˜M troglitazone. A vehicle (C) or oxysterol treatment was applied to cells in a variety of doses (in μM): 20S-Hydroxycholesterol, 25-Hydroxycholesterol, 22R-Hydroxycholesterol; 22S-Hydroxycholesterol; 7-ketocholesterol. Cells were always treated at 90% confluence. After 4 days, alkaline phosphatase activity was determined in whole cell lysates and normalized to protein. Alternatively, MSC cultures were prepared and treated with oxysterols as described above. Cells were treated at 90% confluence with the combination of 22R-Hydroxycholesterol and 20S-Hydroxycholesterol, each at 5 μM, for 4 to 96 hours. The oxysterols where removed and fresh media without oxysterols was added for a total duration of 96 hours. Alkaline phosphatase activity was measured in whole cell extracts and normalized to protein.
M2 cells were treated at 90% confluence with vehicle (C), or oxysterols 20S-Hydroxycholesterol or 22S-Hydroxycholesterol at (0.5 μM) or (1 μM), in the absence or presence of cytochrome P450 inhibitor (SKF525A 10 μM (+)). MSC cultures were also treated at 90% confluence with vehicle (C), or 20S-Hydroxycholesterol (2 μM), in the absence or presence of cytochrome P450 […] (Benzylimidazole 50 μM) or SKF525A (10 μM). After 4 days, alkaline phosphatase activity was measured in whole cell extracts and normalized to protein. […]

M2 cells = test: Adipogenesis of M2 cells, oil Red O staining and adipocyte count; format: cell-based, mouse; conditions: 10 μM Tro, 10 μM oxysterols, alone or in combination, 10 days (FIG. 7)
Procedure: Von Kossa and oil red O staining—Matrix mineralization in cell monolayers was detected by silver nitrate staining as previously described. Oil red O staining for detection of adipocytes was performed as previously described.
Test 1: M2 cells at 90% confluence were treated with vehicle (C), PPAR-γ activator, troglitazone 10 uM (Tro), alone or in combination with 10 μM oxysterols 20S-, 22R-, or 25S-hydroxycholesterol. After 8 days, adipocytes were identified by oil Red O staining and quantified by counting under a phase contrast microscope. FIG. 6A is a bar graph depicting the effect of oxysterols on reducing adipogenesis of MSC.
Test 2: (A) M2 cells at confluence were treated in RPMI containing 10% FBS with control vehicle or 10 μM troglitazone (Tro) in the absence or presence of 10 μM 20S or 22S oxysterols. After 10 days, adipocytes were visualized by oil Red O staining and quantified by light microscopy, shown in (B). Data from a representative of four experiments are shown, reported as the mean SD of quadruplicate determinations (p<0.001 for Tro vs. Tro+20S and Tro+22S). (C) M2 cells were treated at confluence with 10 μM Tro, alone or in combination with 10 μM 20S oxysterol. After 10 days, total RNA was isolated and analyzed for lipoprotein lipase (LPL), adipocyte P2 gene (aP2) or 18S rRNA expression by Northern blotting as described (Ref). Data from densitometric analysis of the Northern blot is shown in (D) as the average of duplicate samples, normalized to 18S rRNA.

adipocyte P2 gene (aP2) = test: Northern blotting for adipocyte P2 gene in M2 cells; format: cell-based, mouse; conditions: 10 μM Tro with 10 μM 20S, 10 days (FIGS. 7C and D)
Procedure: RNA isolation and Northern blot analysis - Following treatment of cells under appropriate experimental conditions, total RNA was isolated using the RNA isolation kit from Stratagene (La Jolla, Calif., U.S.A.). Total RNA ([…]) was run on a 1% agarose/formaldehyde gel and transferred to Duralon-UV membranes (Strategene, CA, U.S.A.) and cross-linked with UV light. The membranes were hybridized overnight at 60° C. with ^32P-labeled mouse osteocalcin cDNA probe, mouse lipoprotein lipase (LPL), mouse adipocyte protein 2 (aP2) PCR-generated probes, human 28S or 18S rRNA probes obtained from Geneka Biotechnology (Montreal, Quebec, Canada) and Maxim Biotech (San Francisco, CA, U.S.A.), respectively. […] The extent of gene induction was determined by densitometry.
Test 2: (A) M2 cells at confluence were treated in RPMI containing 10% FBS with control vehicle or 10 μM troglitazone (Tro) in the absence or presence of 10 μM 20S or 22S oxysterols. After 10 days, adipocytes were visualized by oil Red O staining and quantified by light microscopy, shown in (B). […] After 10 days, total RNA was isolated and analyzed for lipoprotein lipase (LPL), adipocyte P2 gene (aP2) or 18S rRNA expression by Northern blotting as described (Ref). […]

SMILES | induction of alkaline phosphatase activity [1] | dose- and time-dependence of induction of alkaline phosphatase activity [1] | alkaline phosphatase activity [1] | adipogenesis induced by troglitazone (M2 cells) | expression of adipocyte P2 gene (aP2) (adipocyte P2 gene (aP2))
CC(C)CC[C@@H](O)[C@@H](C)[C@H]1CC[C@H]2[C@@H]3CC=C4C[C@@H](O)CC[C@]4(C)[C@H]3CC[C@]12C [22R, 22(R)-hydroxycholesterol] | induced | dose- and time-dependent | 45±5 activity units/mg protein | inhibited adipogenesis | 
CC(C)CC[C@H](O)[C@@H](C)[C@H]1CC[C@H]2[C@@H]3CC=C4C[C@@H](O)CC[C@]4(C)[C@H]3CC[C@]12C [22S, 22(S)-hydroxycholesterol] | induced | dose- and time-dependent |  | inhibited adipogenesis | 
CC(C)CCC[C@](C)(O)[C@H]1CC[C@H]2[C@@H]3CC=C4C[C@@H](O)CC[C@]4(C)[C@H]3CC[C@@]21C [20S, 20(S)-hydroxycholesterol] | induced | dose- and time-dependent | 140±12 activity units/mg protein | inhibited adipogenesis | inhibition of the expression
